Calls of active or inactive are those of the source. No rule for the calls is given here.

As usually defined, the Kd is a measure of binding affinity in units of concentration.

The target of the test is Chaperone protein DnaK (Escherichia coli (strain K12)) (UniProt P0A6Y8). Description: binders of DnaK substrate-binding domain, biophysical, NMR, chaperone (AID 1033). The conditions noted are these: Purified DnaK SBD, NMR ligand binding.
Sequence of Chaperone protein DnaK (Escherichia coli (strain K12)) (P0A6Y8 whole entry, looked up, the tested form may be a part): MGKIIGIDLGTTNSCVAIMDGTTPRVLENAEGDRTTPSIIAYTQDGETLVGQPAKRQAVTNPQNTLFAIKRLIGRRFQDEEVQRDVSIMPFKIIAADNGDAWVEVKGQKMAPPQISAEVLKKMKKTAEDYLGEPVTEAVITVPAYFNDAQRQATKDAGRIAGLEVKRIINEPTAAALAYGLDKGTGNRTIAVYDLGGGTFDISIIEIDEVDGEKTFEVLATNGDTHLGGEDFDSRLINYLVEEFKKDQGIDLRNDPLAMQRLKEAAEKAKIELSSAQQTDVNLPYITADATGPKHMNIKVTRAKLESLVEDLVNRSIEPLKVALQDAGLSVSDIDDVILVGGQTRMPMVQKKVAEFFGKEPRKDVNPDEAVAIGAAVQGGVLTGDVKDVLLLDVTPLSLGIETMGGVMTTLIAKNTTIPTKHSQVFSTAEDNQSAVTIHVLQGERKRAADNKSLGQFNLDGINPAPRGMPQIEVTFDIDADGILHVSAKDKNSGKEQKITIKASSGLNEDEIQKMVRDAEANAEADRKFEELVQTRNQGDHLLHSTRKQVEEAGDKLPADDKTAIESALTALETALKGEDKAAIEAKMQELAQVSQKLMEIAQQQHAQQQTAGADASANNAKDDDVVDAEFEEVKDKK
On to `O=C(Nc1ccc2ccccc2c1)c1cnccn1`, for which the Kd was > 4 mM (inactive).

Consider `Cc1noc(C)c1C(=O)NCc1ccco1`, for which the Kd was > 4 mM (inactive).

Take `COC(=O)c1c(SC)nc(-c2ccccc2)[nH]c1=O`: the Kd is > 4 mM (inactive).

For `O=C1c2ccc(F)cc2C(=O)N1CO`, the Kd was > 4 mM (inactive).

Consider `O=C(Nc1ccccc1[N+](=O)[O-])c1ccc(=O)[nH]n1`, for which the Kd was > 4 mM (inactive).

For `O=C(c1ccccc1)c1ccccc1C(=O)N1CCOCC1`, the Kd was > 4 mM (inactive).

For the compound `O=C(NCc1ccccc1)c1cnsn1`, the Kd is > 4 mM (inactive).

`NC(=O)C1CCN(C2CC(=O)NC2=O)CC1` (centres undefined): the Kd was > 4 mM (inactive).

Take `Cc1cc(C(=O)NCc2cccnc2)cs1`: the Kd is > 4 mM (inactive).

Turning to `C=C[C@@](C)(O)CCC1C(=C)C[C@H](O)C2C(C)(C)CCCC12C` (some centres undefined), the Kd was > 4 mM (inactive).

Regarding `O=c1sc2ccccc2n1CN1CCOCC1`, the Kd is > 4 mM (inactive).

On to `O=C(O)c1cccnc1N1CCCC1`, for which the Kd was > 4 mM (inactive).

On to `NC(=O)c1ccc(N2C(=O)C=CC2=O)cc1Cl`, for which the Kd is > 4 mM (inactive).

As for `CC(=O)c1c(O)cc(O)cc1O`, the Kd is > 4 mM (inactive).

Regarding `C/C=C(\C)C(=O)O[C@@H]1c2c(ccc3ccc(=O)oc23)OC(C)(C)[C@@H]1OC(C)=O`, the Kd is > 4 mM (inactive).

With `CCc1nnsc1C(=O)Nc1nccs1`, the Kd was > 4 mM (inactive).

Consider `CNC(=O)C(=O)Nc1cccc(Cl)c1`, for which the Kd is > 4 mM (inactive).

In the case of `C/C(O)=c1/sc2cc(C)nc(=N)n2c1=O`, the Kd is > 4 mM (inactive).

Take `COC(=O)[C@]1(C)CC[C@]2(C)CC[C@]3(C)C4=CC=C5C(=CC(=O)C(O)=C5C)[C@]4(C)CC[C@@]3(C)[C@@H]2C1`: the Kd is > 4 mM (inactive).

On to `Cc1nn(CC(=O)Nc2ccccc2)c(=O)c2ccccc12`, for which the Kd is > 4 mM (inactive).

As to `NC(CSCSCC(N)C(=O)O)C(=O)O` (centres undefined), the Kd is > 4 mM (inactive).

Consider `Cc1cc(C)nc(N2CC(=O)N(C)C2=N)n1`, for which the Kd was > 4 mM (inactive).

As for `CCP(=O)(CC)c1cccc(C)c1`, the Kd is > 4 mM (inactive).

With `O=C(CCc1ccc(O)cc1)c1c(O)cc(O)cc1O[C@@H]1O[C@H](CO)[C@@H](O)[C@H](O)[C@H]1O`, the Kd is > 4 mM (inactive).

For the compound `O=[N+]([O-])c1ccc(/C=N/c2ncn[nH]2)cc1`, the Kd was > 4 mM (inactive).

As for `CNC(=O)C1COc2ccccc2O1` (centres undefined), the Kd is > 4 mM (inactive).

Regarding `CSc1nc(-c2ccccc2)ccc1C(N)=O`, the Kd was > 4 mM (inactive).

Take `C[C@H](CCC(=O)O)[C@H]1CCC2C3C(CC[C@@]21C)[C@@]1(C)CC[C@@H](O)C[C@H]1C[C@H]3O` (some centres undefined): the Kd was > 4 mM (inactive).

Consider `Cc1nn2c(=O)nc3sc4c(c3c2[nH]c1=O)CCCC4`, for which the Kd was > 4 mM (inactive).

`Cc1ccc(-c2nn3c(C)nnc3s2)cc1N`: the Kd is > 4 mM (inactive).

`CSc1nc2cc(F)c(F)cc2n1C`: the Kd is > 4 mM (inactive).

With `CCN1CCC2(CC1)CC1CC3C=CC1(CN2C(C)=O)O3` (centres undefined), the Kd was > 4 mM (inactive).

On to `NC(=O)N1CCc2ccccc21`, for which the Kd is > 4 mM (inactive).

On to `COc1ccc2c(c1)c1n[nH]c(=S)nc1n2C`, for which the Kd was > 4 mM (inactive).

The values are drawn from PubChem BioAssay AID1033 (Sanford-Burnham Center for Chemical Genomics, 2008).
